Measured values from patent EP1941863A2, “External preparation composition” (Lion Corporation, priority 2002, dated 2004).
Converted amounts (≈) assume the structure as drawn.

Assays:
guinea pig skin = assay: continuous irritative test of guinea pig skin (Draize method); type: in vivo, guinea pig (Hartley series); design: key: sum of erythema (0-4) + edema (0-4) scores; max 8
Procedure: Each left and right two spots (4 spots/head) of applying parts having a frame of 2 cm x 2 cm were provided on the back of a shaved guinea pig (Hartley series, 7 weeks of age, female, N = 10), and each 50 µL of an ethanol/propylene glycol (7 : 3) solution containing 0.5 % of the respective acyl glucosamine derivatives shown in the following Table 1 was applied once a day on the respective frames.
A skin irritative score after application for 3 days straight was evaluated according to the following evaluation criteria (Draize method). The above irritative score was shown by the total points (full marks: 8 points) of erythema and edema.
• Erythema: • Evaluation point • 0: no erythema • 1: very weak erythema • 2: clear erythema • 3: middle to strong erythema • 4: very strong erythema to crust
• Evaluation point • 0: no edema • 1: very slight edema formation • 2: slight edema formation • 3: middle edema formation • 4: strong edema formation

[1] = solubility in the ethanol/propylene glycol (7 : 3) solvent (Japanese Pharmacopoeia criteria); type: physicochemical; conditions: organic solvent or mixture, 20°C, within 30 minutes, amount of solvent for 1 g or 1 ml of solute
[2] = test system: skin roughness in the inside of a forearm formed with 10 % SDS solution; assay: skin roughness-improving test (SDS-induced roughness, stratum corneum conductance); type: in vivo, human being; conditions: hydrophilic ointment with 0.05 %, twice a day, 3 days later; conductance relative to ointment with no tested substance = 100
Procedure: The skin roughness-improving degree observed 3 days later after application was evaluated using a change in a stratum corneum water content as an index. The stratum corneum water content is measured in terms of a conductance (µS). […] Skin roughness-improving rate (%) = [(conductance observed when applying the ointment blended with the tested substance)/(conductance observed when applying the ointment blended with no tested substance)] × 100 [formula]

[3] = test system: pigmentation on the backs of color guinea pigs irradiated with UV rays; assay: whitening evaluation on UV-induced pigmentation; type: in vivo; conditions: 30 µL of 0.05 % in ethanol/propylene glycol (7 : 3), once a day, five times a week, 4 weeks; visual change in pigmentation
Description: Back body hair of color guinea pigs were shaved by means of a hair clipper and a shaver, and they were irradiated with UV rays once a day, 4 times a week and 8 times in total, whereby 4 parts of pigmentation having an area of about 2.25 cm^2 were formed on the backs of the respective guinea pigs.

[4] = test system: texture of the back skin of hairless mice irradiated with UVB; assay: coarse texture-improving test in UVB-irradiated hairless mice (skin replica); type: in vivo, hairless mice (hos: HR-1); conditions: 100 µL of 0.05 % in ethanol/propylene glycol (7 : 3), five times a week, 4 weeks, after 6 weeks UVB 40 mJ/cm^2; texture intersection points relative to start of test; control 24
Description: The enlarged photographs of the respective replicas were taken through a macro lens (magnification: four times), and the photographs were used to evaluate "coarsening of the texture". The coarseness of the texture was defined by a "number of texture intersection point", wherein a point in which three or more sulci cutis are joined is counted as one intersection point, and the number of the texture intersection points present in a square of 1 cm x 1 cm was counted on the replica photograph. An average point for the respective groups was calculated, and the texture-improving rate was calculated according to the following equation (III). Table 4. Texture-improving rate (%) = [(number of texture intersection point after irradiating with UV or after application)/(number of texture intersection point at the time of starting the test)] × 100 [formula]

[5] = test system: wrinkles of the back skin of hairless mice irradiated with UVB; assay: wrinkle-improving test in UVB-irradiated hairless mice; type: in vivo, hairless mice (hos: HR-1); conditions: 100 µL of 0.05 % in ethanol/propylene glycol (7 : 3), once a day, five times a week, 8 weeks, after 10 weeks UVB 50 mJ/cm^2; visual score relative to control group
Procedure: Evaluation point 1: all fine striations along the spine are not observed; a few shallow and coarse wrinkles run perpendicularly to the head-to-tail direction; and the striations appear or disappear with the motion of the mouse. […] The respective bodies were evaluated by an evaluation point of a 0.5 unit to calculate an average point for the respective groups, and the wrinkle-improving rate was calculated for the respective groups according to the following equation (II). Wrinkle-improving rate (%) = [(average value of the control group-average value of a glucosamine derivative-applied group)/(average value of the control group)] × 100 [formula]

acnes of acne patients = assay: acne-improvement evaluation with an essence for acne; type: in vivo; conditions: essence with 0.05 %, a month later; for Evaluation ×: number of subjects rated × : worsened; for Evaluation Δ: number of subjects rated Δ : no change; for Evaluation ⊚: number of subjects rated ⊚ : notably improved, several times a day; for Evaluation ○: number of subjects rated ○ : improved; for Acne treating effect: subjects rated ○ or ⊚
Procedure: Prepared was an essence for acne shown in the following composition example in which 0.05 % of various acyl glucosamine derivatives shown in the following Table 6 was blended. An essence which was not blended with an acyl glucosamine derivative was prepared as a control.

[6] = Table 2, by stereoisomer ratio, 0.5 % in ethanol/propylene glycol (7 : 3) once a day, 3 days straight, full marks 8
[7] = Table 1, 50 µL of 0.5 % in ethanol/propylene glycol (7 : 3) once a day, after 3 days straight, total points of erythema and edema, full marks 8, N = 10

solubility at 0.5 h [1] | Molecule | Draize score (guinea pig skin; [6]) | Draize score (guinea pig skin; [7]) | Skin roughness-improving rate [2] | Whitening-improving effect [3] | Texture-improving rate [4] | Wrinkle-improving rate [5] | Evaluation × (acnes of acne patients) | Evaluation Δ (acnes of acne patients) | Evaluation ⊚ (acnes of acne patients) | Evaluation ○ (acnes of acne patients) | Acne treating effect (acnes of acne patients) | Draize score (guinea pig skin; guinea pig, in vivo)
 | 1,3,4,6-tetra-O-acetyl-N-retinoyl-D-glucosamine | 0.0 |  |  |  |  |  |  |  |  |  |  | 
1000 to 10000 µg/mL (≈ 1.59 to 15.9 mM) | CC(=O)OC[C@H]1OC(OC(C)=O)[C@H](NC(=O)/C=C(C)/C=C/C=C(C)/C=C/C2=C(C)CCCC2(C)C)[C@@H](OC(C)=O)[C@@H]1OC(C)=O (single isomer, unassigned) [1,3,4,6-tetra-O-acetyl-N-retinoyl-D-glucosamine] | 0.0 |  |  |  |  |  |  |  |  |  |  | 
 | CC(=O)OC[C@H]1OC(OC(C)=O)[C@H](NC(=O)/C=C(C)/C=C/C=C(C)/C=C/C2=C(C)CCCC2(C)C)[C@@H](OC(C)=O)[C@@H]1OC(C)=O (stereo partly drawn) [1,3,4,6-tetra-O-acetyl-N-retinoyl-D-glucosamine] |  | 0.0 |  |  |  |  |  |  |  |  |  | 
 | CCCCCCCCCCCCOC(=O)N[C@H]1C(O)O[C@H](CO)[C@@H](O)[C@@H]1O (stereo partly drawn) [N-dodecyloxycarbonyl-D-glucosamine] |  |  | 183% | +++ |  |  |  |  |  |  |  | 
 | CC(C)CCCCCCCCCCCCCCC(=O)N[C@H]1C(O)O[C@H](CO)[C@@H](O)[C@@H]1O (stereo partly drawn) [N-isostearoyl-D-glucosamine] |  | 0.1 | 136% | + | 72% | 80% | 0 | 2 | 0 | 3 | 60 percentage | 
 | CCCCCCCCCCCC(=O)N[C@H]1C(O)O[C@H](CO)[C@@H](O)[C@@H]1O (stereo partly drawn) [N-lauroyl-D-glucosamine] |  | 0.1 | 114% | + | 87% | 78% | 1 | 1 | 0 | 1 | 33 percentage | 
 | CCCCC/C=C\C/C=C\CCCCCCCC(=O)N[C@H]1C(O)O[C@H](CO)[C@@H](O)[C@@H]1O (stereo partly drawn) [N-linoleoyl-D-glucosamine] |  | 0.3 | 115% | ++ | 58% | 62% | 1 | 3 | 0 | 1 | 20 percentage | 
 | CCCCCCCC/C=C\CCCCCCCC(=O)N[C@H]1C(O)O[C@H](CO)[C@@H](O)[C@@H]1O (stereo partly drawn) [N-oleoyl-D-glucosamine] |  | 0.2 | 114% | +++ | 59% | 65% | 0 | 2 | 0 | 3 | 60 percentage | 
1000 to 10000 µg/mL (≈ 2.17 to 21.7 mM) | CC1=C(/C=C/C(C)=C/C=C/C(C)=C/C(=O)N[C@H]2C(O)O[C@H](CO)[C@@H](O)[C@@H]2O)C(C)(C)CCC1 [N-retinoyl-D-glucosamine (cis isomer/trans isomer = 0/100), N-retinoyl-D-glucosamine] | 0.0 |  |  |  |  |  |  |  |  |  |  | 
 | CC1=C(/C=C/C(C)=C/C=C/C(C)=C/C(=O)O)C(C)(C)CCC1 [Retinoic acid, reference compound] |  | 8.0 |  |  |  |  |  |  |  |  |  | 
 | N-POE(2)hexadecyletheroxycarbonyl-D-glucosamine |  |  | 139% | ++ | 89% | 72% | 0 | 2 | 0 | 3 | 60 percentage | 0.1
 | N-POE(5)octadecyletheroxycarbonyl-D-glucosamine |  |  | 128% | ++ | 92% | 73% | 0 | 3 | 0 | 2 | 40 percentage | 0.2
 | N-POE(10)docosyletheroxycarbonyl-D-glucosamine |  |  | 138% | ++ | 88% | 82% | 0 | 3 | 0 | 2 | 40 percentage | 0.1
 | N-retinoyl-D-glucosamine |  |  | 127% | +++ | 75% | 89% | 0 | 0 | 4 | 2 | 100 percentage | 
 | N-retinoyl-D-glucosamine [N-retinoyl-D-glucosamine (9-cis isomer/13-cis isomer/trans i] | 0.1 | 0.1 |  |  |  |  |  |  |  |  |  | 
 | N-retinoyl-D-glucosamine [N-retinoyl-D-glucosamine (9-cis isomer/trans isomer = 0.5/99.5)] | 0.1 |  |  |  |  |  |  |  |  |  |  | 
 | N-retinoyl-D-glucosamine [N-retinoyl-D-glucosamine (13-cis isomer/trans isomer = 0.5/99.5)] | 0.0 |  |  |  |  |  |  |  |  |  |  | 
